Measurements published in patent publication EP0153678A1, “Cinnamic acid derivatives, processes for the preparation thereof and pharmaceutical compositions” (Tanabe Seiyaku Co., Ltd., priority 1984, dated 1985).
Counter-ions that a name gives are not always drawn.

Assays:
[1] = test system: pulmonary embolism induced by arachidonic acid; experiment: Prophylactic effect against pulmonary embolism induced by arachidonic acid in mice (method of Kohler et al.); format: in vivo; conditions: for Evalu-tion (shortening rate of the recovery time): ddY male mice, test compound 30 mg/kg orally in 0.25 % CMC, after one hour arachidonic acid 70 mg/kg intravenously; for prophylactic effect against arachidonic acid-induced pulmonary embolism, relative to 3-[4-(3-pyridylmethyl)phenyl]-2-methylacrylic acid hydrochloride: Kohler et al.'s method, times as strong as the known compound
Description: After one hour, arachidonic acid (70 mg/10 ml saline solution/kg) was intravenously administered. […] The time from having had difficulty in breathing and laying till starting to move was counted as a recovery time. When the test animal was died, the longest recovery time during the test was counted. The shortening rate of the recovery time was calculated by the following formula for showing the effect of the test compounds.

[2] = Toxicity compared with the known compound (method not described); conditions: fraction of the toxicity of the sodium salt of the known compound

| SMILES | Evalu-tion (shortening rate of the recovery time) [1] | prophylactic effect against arachidonic acid-induced pulmonary embolism, relative to 3-[4-(3-pyridylmethyl)phenyl]-2-methylacrylic acid hydrochloride [1] | toxicity relative to sodium 3-[4-(3-pyridylmethyl)phenyl]-2-methyl--acrylate [2] |
| --- | --- | --- | --- |
| CC(=Cc1ccc(Cc2cccnc2)cc1)C(=O)O.Cl [3-[4-(3-pyridylmethyl)phenyl]-2-methylacrylic acid hydrochloride, reference compound] | ± (evaluated as (±) when it was from 20 % to less than 50 %) |  |  |
| CCCOC(c1ccc(C=C(C)C(=O)[O-])cc1)c1cccnc1.[Na+] (stereo not drawn) [sodium α-methyl-4-(α-n-propoxy-3-pyridylmethyl)cinnamate] | + (evaluated as (+) when it was more than 50 %) |  |  |
| CC(=Cc1ccc(C(O)c2cccnc2)cc1)C(=O)O (stereo not drawn) [α-methyl-4-(α-hydroxy-3-pyridylmethyl)cinnamic acid hydrochloride] | + (evaluated as (+) when it was more than 50 %) |  |  |
| CC(=Cc1ccc(C(=O)c2cccnc2)cc1)C(=O)O [hydrochloride] | + (evaluated as (+) when it was more than 50 %) |  |  |
| CCOC(c1ccc(C=C(C)C(=O)[O-])cc1)c1cccnc1.[Na+] (stereo not drawn) [sodium α-methyl-4-(α-ethoxy-3-pyridylmethyl)cinnamate] | + (evaluated as (+) when it was more than 50 %) | more than 2 times | about half |
| CC(=Cc1ccc(C(O)c2cccnc2)cc1)C(=O)O (stereo not drawn) [α-methyl-4-(α-hydroxy-3-pyridylmethyl)cinnamic acid] |  | more than 2 times |  |
| COC(c1ccc(C=C(C)C(=O)O)cc1)c1cccnc1 (stereo not drawn) [sodium α-methyl-4-(α-methoxy-3-pyridylmethyl)cinnamate] | + (evaluated as (+) when it was more than 50 %) |  |  |
